# Calls of active or inactive are those of the source. The rule behind the calls is not given here.
# What was measured:
# Mus musculus [1] = experiment: Anti-inflammatory activity in LPS/MSU-induced Casp1 knockout C57BL/6 mouse model of acute peritonitis assessed as reduction in IL-1beta expression at 20 mg/kg, ip preadministered intraperitoneally with compound for 30 mins followed by MSU injection and measured after 6 hrs by ELISA; format: functional, organism-based
# J774.A1 [2] = experiment: Inhibition of pyroptosis in mouse J774.A1 cells assessed as reduction in caspase-1 to GSDMD interaction at 1 uM pretreated with LPS for 3 hrs followed by compound addition in presence of nigericin by immunoprecipitation analysis; format: functional, cell-based
# J774.A1 [3] = experiment: Downregulation of inhibitor kappa B-alpha phosphorylation in mouse J774.A1 cells at 0.5 to 2 uM preincubated for 30 mins followed by LPS addition and measured after 2 hrs by Western blotting analysis; format: functional, cell-based; conditions: dose 0.5-2 µM, time 2.5 hrs
# [4] = molecular target: NACHT, LRR and PYD domains-containing protein 3 (Mus musculus) (UniProt Q8R4B8); experiment: Inhibition of NLRP3 inflammasome activation in LPS/MSU stimulated mouse J774.A1 cells assessed as reduction in IL-18 production incubated for 4 hrs by ELISA; format: cell-based
# THP-1 [5] = experiment: Effect on cleaved caspase-4 expression in human THP-1 cells at 2 uM pretreated with pam3CSK4 for 3 hrs followed by compound addition for 30 mins prior to cytosolic LPS stimulation for 16 hrs by ELISA; format: functional, cell-based; conditions: time 16.5 hrs
# BMDM = experiment: Effect on pro caspase-11 expression in mouse BMDM cells at 0.5 to 2 uM pretreated with pam3CSK4 for 3 hrs followed by compound addition for 30 mins prior to cytosolic LPS stimulation for 16 hrs by ELISA; format: functional, cell-based; conditions: dose 0.5-2 µM, time 16.5 hrs
# Mus musculus [6] = experiment: (§1) Anti-inflammatory activity in MSU/C18:0 free fatty acid induced Kunming mouse model of gouty arthritis assessed as effect on ASC expression at 5 to 20 mg/kg, ip preadministered with compound for 30 mins followed by MSU/C18:0 free fatty acid injection and measured after 24 hrs by Western blotting analysis; format: functional, organism-based; conditions: dose 5-20 mg/kg, time 24.5 hrs
# Mus musculus [7] = experiment: as §1, with “reduction IL-1beta” for “effect on ASC”; format: functional, organism-based; conditions: dose 5-20 mg/kg, time 24.5 hrs
# J774.A1 [8] = experiment: Cytotoxicity against mouse J774.A1 cells at 2 uM incubated for 1 to 12 hrs by CCK-8 method; format: toxicity, cell-based; conditions: j774.a1, 2 µM, time 1-12 hrs
# J774.A1 [9] = experiment: Inhibition of ROS production in LPS/nigericin stimulated mouse J774.A1 cells; format: functional, cell-based
# [10] = tested on: Caspase-1 (Homo sapiens), P29466 [C397A]; experiment: Binding affinity to Flag-tagged caspase-1 C397A mutant (unknown origin) expressed in HEK293T cells by pull-down assay; format: cell-based
# J774.A1 [11] = experiment: Effect on ASC oligomerization in mouse J774.A1 cells at 2 uM pretreated with LPS for 3 hrs prior to compound addition followed by nigericin stimulation; format: functional, cell-based
# HEK293T [12] = experiment: Inhibition of recombinant wild type caspae-1 (unknown origin) to GSDMD (unknown origin) interaction expressed in HEK293T cells; format: cell-based; conditions: Homo sapiens
# THP-1 [13] = experiment: Effect on pro-caspase 1 protein expression in LPS/ATP stimulated human THP-1 cells supernatant by Western blotting analysis; format: functional, cell-based
# J774.A1 [14] = experiment: Inhibition of ASC to pro-caspase-1 interaction in LPS/nigericin stimulated mouse J774.A1 cells; format: cell-based
# [15] = molecular target: NACHT, LRR and PYD domains-containing protein 3 (Mus musculus) (UniProt Q8R4B8); experiment: Inhibition of NLRP3 inflammasome activation in LPS/ATP stimulated mouse J774.A1 cells assessed as reduction in IL-18 production incubated for 30 mins by ELISA; format: cell-based
# [16] = molecular target: NACHT, LRR and PYD domains-containing protein 3 (Mus musculus) (UniProt Q8R4B8); experiment: Inhibition of NLRP3 inflammasome activation in mouse J774.A1 cells assessed as reduction in TNF-alpha release at 0.5 to 2 uM preincubated for 30 mins followed by LPS stimulation for 6 hrs; format: cell-based; conditions: dose 0.5-2 µM, time 6.5 hrs
# THP-1 [17] = experiment: Inhibition of p20 fragment of IL-1beta protein expression in LPS/ATP stimulated human THP-1 cells supernatant by Western blotting analysis; format: functional, cell-based
# [18] = molecular target: Interferon-inducible protein AIM2 (Mus musculus) (UniProt Q91VJ1); experiment: Inhibition of AIM2 inflammasome activation in mouse BMDMs assessed as reduction in caspase-1 activation at 0.5 to 2 uM primed with LPS for 3 hrs followed by incubation with compound for 30 mins and later stimulated with poly (dA:dT) for 16 hrs; format: cell-based; conditions: BMDM, dose 0.5-2 µM, time 16.5 hrs
# HEK293T [19] = experiment: Inhibition of recombinant caspae-1 C270A mutant (unknown origin) to GSDMD (unknown origin) interaction expressed in HEK293T cells; format: cell-based; conditions: Homo sapiens
# [20] = molecular target: NACHT, LRR and PYD domains-containing protein 3 (Homo sapiens) (UniProt Q96P20); experiment: Inhibition of NLRP3 inflammasome activation in LPS/nigericin stimulated human THP-1 cells assessed as reduction in IL-1beta production at 1 uM pretreated with LPS for 3 hrs followed by compound addition for 30 mins prior to nigericin stimulation for 45 mins by ELISA; format: cell-based; conditions: time 75.0 min
# HEK293T [21] = experiment: Inhibition of recombinant caspae-1 C397A mutant (unknown origin) to GSDMD (unknown origin) interaction expressed in HEK293T cells; format: cell-based; conditions: Homo sapiens
# [22] = tested on: Caspase-1 (Homo sapiens), P29466 [C169A]; experiment: Binding affinity to recombinant caspase-1 C169A mutant (unknown origin) at 2 uM by SDS-PAGE analysis
# J774.A1 [23] = experiment: Inhibition of NF-kappaB signaling in LPS-stimulated mouse J774.A1 cells at 1 uM preincubated for 30 mins followed by LPS addition and measured after 2 hrs by Western blotting analysis; format: cell-based; conditions: time 2.5 hrs
# J774.A1 [24] = experiment: Effect on ASC speck formation in mouse J774.A1 cells at 2 uM pretreated with LPS for 3 hrs prior to compound addition followed by nigericin stimulation; format: functional, cell-based
# Mus musculus [25] = experiment: Anti-inflammatory activity in MSU/C18:0 free fatty acid induced Kunming mouse model of gouty arthritis assessed as reduction in joint swelling at 5 to 20 mg/kg, ip preadministered with compound for 30 mins followed by MSU/C18:0 free fatty acid injection and measured after 24 hrs; format: functional, organism-based; conditions: dose 5-20 mg/kg, time 24.5 hrs
# Mus musculus [26] = experiment: as §1, with “pro-IL-1beta” for “ASC”; format: functional, organism-based; conditions: dose 5-20 mg/kg, time 24.5 hrs
# Mus musculus [27] = experiment: Anti-inflammatory activity in MSU/C18:0 free fatty acid induced ip dosed Casp1 knockout Kunming mouse model of gouty arthritis assessed as reduction in foot swelling preadministered with compound for 30 mins followed by MSU/C18:0 free fatty acid injection and measured after 24 hrs; format: functional, organism-based; conditions: time 24.5 hrs
# [28] = Tmax in rat at 25 mg/kg, po; format: ADME, organism-based; conditions: in vivo
# J774.A1 [29] = experiment: Inhibition of mitochondrial damage in LPS/nigericin stimulated mouse J774.A1 cells; format: functional, cell-based
# Mus musculus [30] = species on record: Mus musculus; experiment: Inhibition of pain perception in MSU/C18:0 free fatty acid induced Casp1 knockout mouse measured upto 24 hrs; format: functional, organism-based
# THP-1 [31] = experiment: Inhibition of p20 fragment of caspase 1 protein expression in LPS/MSU stimulated human THP-1 cells supernatant by Western blotting analysis; format: functional, cell-based
# THP-1 [32] = experiment: Effect on cleaved caspase-5 expression in human THP-1 cells at 2 uM pretreated with pam3CSK4 for 3 hrs followed by compound addition for 30 mins prior to cytosolic LPS stimulation for 16 hrs by ELISA; format: functional, cell-based; conditions: time 16.5 hrs
# Chain of NACHT, LRR and PYD domains-containing protein 3 (Mus musculus) (Q8R4B8 whole entry, the tested form may be a part): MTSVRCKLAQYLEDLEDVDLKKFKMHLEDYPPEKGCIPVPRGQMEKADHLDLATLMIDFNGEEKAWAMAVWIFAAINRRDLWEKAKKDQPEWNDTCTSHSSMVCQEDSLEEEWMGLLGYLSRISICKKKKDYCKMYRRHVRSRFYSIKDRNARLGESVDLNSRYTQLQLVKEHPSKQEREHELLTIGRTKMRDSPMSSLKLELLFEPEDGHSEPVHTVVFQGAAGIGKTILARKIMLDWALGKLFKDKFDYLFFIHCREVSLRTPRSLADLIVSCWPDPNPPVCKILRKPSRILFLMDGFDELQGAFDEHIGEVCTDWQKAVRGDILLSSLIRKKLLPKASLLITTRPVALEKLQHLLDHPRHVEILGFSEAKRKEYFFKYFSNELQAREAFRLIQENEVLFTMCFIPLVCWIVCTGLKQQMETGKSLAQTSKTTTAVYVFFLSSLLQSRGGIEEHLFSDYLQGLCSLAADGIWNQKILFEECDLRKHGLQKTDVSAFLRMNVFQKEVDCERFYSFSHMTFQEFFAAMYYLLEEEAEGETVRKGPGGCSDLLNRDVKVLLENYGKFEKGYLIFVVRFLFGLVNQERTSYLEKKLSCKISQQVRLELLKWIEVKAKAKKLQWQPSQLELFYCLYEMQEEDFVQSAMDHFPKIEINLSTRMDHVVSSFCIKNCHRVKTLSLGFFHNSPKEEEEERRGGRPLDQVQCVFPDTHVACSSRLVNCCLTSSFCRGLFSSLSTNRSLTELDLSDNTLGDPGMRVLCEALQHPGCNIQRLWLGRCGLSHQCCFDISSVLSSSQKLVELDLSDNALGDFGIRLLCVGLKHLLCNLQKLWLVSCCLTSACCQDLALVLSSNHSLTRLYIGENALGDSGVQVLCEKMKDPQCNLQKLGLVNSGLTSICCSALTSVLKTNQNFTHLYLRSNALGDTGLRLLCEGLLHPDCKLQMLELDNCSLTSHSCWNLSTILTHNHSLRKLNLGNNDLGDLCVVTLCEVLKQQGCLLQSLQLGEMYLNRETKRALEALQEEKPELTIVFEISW
# Chain of Caspase-1 (Homo sapiens), P29466 [C169A] (P29466 whole entry C169A): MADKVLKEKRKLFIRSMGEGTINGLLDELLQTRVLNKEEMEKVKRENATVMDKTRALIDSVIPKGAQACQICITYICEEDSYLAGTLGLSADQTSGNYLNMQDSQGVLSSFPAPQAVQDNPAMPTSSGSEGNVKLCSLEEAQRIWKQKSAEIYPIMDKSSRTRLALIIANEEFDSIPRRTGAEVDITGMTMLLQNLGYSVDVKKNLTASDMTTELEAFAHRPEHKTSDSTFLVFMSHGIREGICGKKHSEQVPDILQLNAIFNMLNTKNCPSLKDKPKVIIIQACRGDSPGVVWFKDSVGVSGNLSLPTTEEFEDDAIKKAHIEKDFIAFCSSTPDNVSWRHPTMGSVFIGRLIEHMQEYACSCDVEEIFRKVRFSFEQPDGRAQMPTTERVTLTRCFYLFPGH
# Chain of Caspase-1 (Homo sapiens), P29466 [C397A] (P29466 whole entry C397A): as the sequence (P29466 whole entry C169A) above, with A169C, C397A counted along it
# Chain of NACHT, LRR and PYD domains-containing protein 3 (Homo sapiens) (Q96P20 whole entry, the tested form may be a part): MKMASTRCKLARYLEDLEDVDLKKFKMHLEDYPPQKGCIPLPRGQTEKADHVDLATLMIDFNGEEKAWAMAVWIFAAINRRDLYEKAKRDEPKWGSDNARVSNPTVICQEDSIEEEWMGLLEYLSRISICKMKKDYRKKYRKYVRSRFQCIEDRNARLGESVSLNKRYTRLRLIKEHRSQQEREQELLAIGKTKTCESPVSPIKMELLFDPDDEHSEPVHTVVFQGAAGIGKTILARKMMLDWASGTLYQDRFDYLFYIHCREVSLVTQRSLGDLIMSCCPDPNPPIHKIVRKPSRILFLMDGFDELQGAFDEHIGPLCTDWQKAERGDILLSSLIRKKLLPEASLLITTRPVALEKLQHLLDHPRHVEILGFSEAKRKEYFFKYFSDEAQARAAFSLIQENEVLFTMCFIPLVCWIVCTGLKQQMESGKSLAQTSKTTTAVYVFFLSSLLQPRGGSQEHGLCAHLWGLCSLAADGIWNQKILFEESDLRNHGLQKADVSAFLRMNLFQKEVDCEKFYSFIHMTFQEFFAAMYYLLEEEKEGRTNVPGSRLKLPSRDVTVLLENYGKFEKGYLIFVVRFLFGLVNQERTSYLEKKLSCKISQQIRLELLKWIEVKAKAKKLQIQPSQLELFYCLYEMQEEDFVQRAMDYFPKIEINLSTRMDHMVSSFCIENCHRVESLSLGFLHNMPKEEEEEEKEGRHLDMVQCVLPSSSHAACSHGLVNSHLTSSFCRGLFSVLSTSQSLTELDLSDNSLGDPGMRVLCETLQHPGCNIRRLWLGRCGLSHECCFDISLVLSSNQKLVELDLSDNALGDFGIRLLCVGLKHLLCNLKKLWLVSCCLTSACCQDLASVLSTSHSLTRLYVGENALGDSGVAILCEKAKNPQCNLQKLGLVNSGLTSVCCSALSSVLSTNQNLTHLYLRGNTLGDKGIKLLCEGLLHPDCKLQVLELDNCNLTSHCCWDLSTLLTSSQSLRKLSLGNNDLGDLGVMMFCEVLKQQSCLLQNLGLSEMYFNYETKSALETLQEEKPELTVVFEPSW
# Chain of Interferon-inducible protein AIM2 (Mus musculus) (Q91VJ1 whole entry): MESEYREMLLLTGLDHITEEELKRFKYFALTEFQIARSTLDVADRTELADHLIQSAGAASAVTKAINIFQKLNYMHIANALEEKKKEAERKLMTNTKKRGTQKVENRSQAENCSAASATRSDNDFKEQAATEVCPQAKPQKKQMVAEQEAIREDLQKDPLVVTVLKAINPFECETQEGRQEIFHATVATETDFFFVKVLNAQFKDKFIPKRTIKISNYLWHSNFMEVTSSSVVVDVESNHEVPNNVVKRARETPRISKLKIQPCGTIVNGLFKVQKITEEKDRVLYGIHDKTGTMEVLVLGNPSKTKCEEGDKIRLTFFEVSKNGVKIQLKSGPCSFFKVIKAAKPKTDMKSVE
smiles,measurement,setting,value
COc1ccc2c(c1)[C@]1(C=C[C@H](N=C=S)C[C@H]1C(=O)OC(C)(C)C)C(=O)N2C(=O)OCc1ccccc1,Activity,Mus musculus [1],inactive
same,inhibition,J774.A1 [2],Active
same,Activity,J774.A1 [3],Active
same,inhibition,[4],Active
same,Activity,THP-1 [5],inactive
same,Activity,BMDM,inactive
same,Activity,Mus musculus [6],inactive
same,Activity,Mus musculus [7],Active
same,Activity,J774.A1 [8],Non-Toxic
same,inhibition,J774.A1 [9],inactive
same,Activity,[10],inactive
same,inhibition,J774.A1 [11],Active
same,inhibition,HEK293T [12],Active
same,Activity,THP-1 [13],inactive
same,inhibition,J774.A1 [14],Active
same,inhibition,[15],Active
same,inhibition,[16],Active
same,inhibition,THP-1 [17],Active
same,inhibition,[18],Active
same,inhibition,HEK293T [19],Active
same,inhibition,[20],Active
same,inhibition,HEK293T [21],inactive
same,Activity,[22],Active
same,inhibition,J774.A1 [23],Active
same,inhibition,J774.A1 [24],Active
same,Activity,Mus musculus [25],Active
same,Activity,Mus musculus [26],inactive
same,Activity,Mus musculus [27],inactive
same,Tmax,[28],1.5 h
same,inhibition,J774.A1 [29],inactive
same,inhibition,Mus musculus [30],inactive
same,inhibition,THP-1 [31],Active
same,Activity,THP-1 [32],inactive

# — ChEMBL document CHEMBL5584334, “Discovery of a Covalent Inhibitor of Pro-Caspase-1 Zymogen Blocking NLRP3 Inflammasome Activation and Pyroptosis” (J Med Chem, 2024)
